Assay results published in patent US20240310368A1, “DETECTION KIT FOR CATECHOLAMINES AND METABOLITES THEREOF IN PLASMA/URINE AND DETECTION METHOD THEREOF” (Calibra Scientific, Inc., priority 2023, published 2024).

Test: Acceleration test of plasma samples with stabilizers (30° C. for 1.5 days, against control plasma stored at −95° C. to −65° C.), LC-MS/MS Area/IS Area
Method: Samples were collected in EDTA-anticoagulant blood collection tubes and then rapidly subjected to […] centrifugation at 2-8° C. to separate plasma. 0.95 mL of the plasma was transferred into centrifuge tubes. After 50 μL of the stabilizer was added for uniform mixing, the plasma samples were stored by refrigeration or freezing.
• (1) 500 μL of plasma/urine samples to be tested were taken, and 50 μL of the internal standard solution and 500 μL of the buffer solution were sequentially added for vertex mixing to obtain diluted samples. • (2) The magnetic medium composite material suspension was subjected to full vortex treatment to reach a suspension state, and then subsequent operation was performed. • (3) Different reagents were added into wells of a preprocessing plate according to the follow operation: adding 200 μL of the magnetic medium composite material suspension in column 1, adding 500 μL of the balance solution in column 2, adding 850 μL of the diluted samples in column 3, adding 500 μL of the balance solution in column 4, adding 200 μL of a rinsing solution in column 5, and adding 100 μL of the elution solution in column 6. • (4) An extraction operation procedure was carried out, as shown in Table 5.
Each group of the plasma samples were stored at 30° C. for 1.5 days, and plasma without addition of any compounds stored at −95° C. to −65° C. was used as a control. […] The stabilizing effect of the single-component stabilizers on the plasma samples was investigated.
The stabilizers were mixed with plasma (the volume ratio of the stabilizers to plasma samples was 1:19), and high concentration plasma samples and low concentration plasma samples were prepared by the method provided in Example 1.
With plasma stored at −95° C. to −65° C. as a control, the above plasma samples were separately stored at 30° C. for 1.5 days to investigate the stability. […]

[1] = plasma at a high concentration level, plasma containing 0.5% of the acid, control plasma 0.624
[2] = plasma at a high concentration level, plasma containing 0.5% of the acid, control plasma 1.522
[3] = plasma at a high concentration level, plasma containing 0.5% of the acid, control plasma 2.27
[4] = plasma at a high concentration level, plasma containing 2.0% of the acid, control plasma 0.624
[5] = plasma at a high concentration level, plasma containing 2.0% of the acid, control plasma 1.522
[6] = plasma at a high concentration level, plasma containing 2.0% of the acid, control plasma 2.27
[7] = plasma at a low concentration level, plasma containing 0.5% of the acid, control plasma 0.079
[8] = plasma at a low concentration level, plasma containing 0.5% of the acid, control plasma 0.219
[9] = plasma at a low concentration level, plasma containing 0.5% of the acid, control plasma 0.233
[10] = plasma at a low concentration level, plasma containing 2.0% of the acid, control plasma 0.079
[11] = plasma at a low concentration level, plasma containing 2.0% of the acid, control plasma 0.219
[12] = plasma at a low concentration level, plasma containing 2.0% of the acid, control plasma 0.233

| SMILES | Ratio (Area/IS Area) E [1] | Ratio (Area/IS Area) NE [2] | Ratio (Area/IS Area) DA [3] | Ratio (Area/IS Area) E [4] | Ratio (Area/IS Area) NE [5] | Ratio (Area/IS Area) DA [6] | Ratio (Area/IS Area) E [7] | Ratio (Area/IS Area) NE [8] | Ratio (Area/IS Area) DA [9] | Ratio (Area/IS Area) E [10] | Ratio (Area/IS Area) NE [11] | Ratio (Area/IS Area) DA [12] | other results |
| --- | --- | --- | --- | --- | --- | --- | --- | --- | --- | --- | --- | --- | --- |
| O=P(O)(O)O [phosphoric acid] | 0 | 0 | 0 | 0 | 0 | 0 | 0 | 0 | 0 | 0 | 0 | 0 | – |
| O=C(O)CN(CCN(CC(=O)O)CC(=O)O)CC(=O)O.[Na].[Na] [disodium EDTA, disodium ethylenediaminetetraacetic acid] | – | – | – | – | – | – | – | – | – | – | – | – | Ratio (Area/IS Area) E (plasma at a high concentration level, plasma containing 50 μg/mL of the component, control plasma 0.624): 0; Ratio (Area/IS Area) NE (plasma at a high concentration level, plasma containing 50 μg/mL of the component, control plasma 1.522): 0; Ratio (Area/IS Area) DA (plasma at a high concentration level, plasma containing 50 μg/mL of the component, control plasma 2.27): 0; Ratio (Area/IS Area) E (plasma at a high concentration level, plasma containing 200 μg/mL of the component, control plasma 0.624): 0; Ratio (Area/IS Area) NE (plasma at a high concentration level, plasma containing 200 μg/mL of the component, control plasma 1.522): 0; Ratio (Area/IS Area) DA (plasma at a high concentration level, plasma containing 200 μg/mL of the component, control plasma 2.27): 0; Ratio (Area/IS Area) E (plasma at a low concentration level, plasma containing 50 μg/mL of the component, control plasma 0.079): 0; Ratio (Area/IS Area) NE (plasma at a low concentration level, plasma containing 50 μg/mL of the component, control plasma 0.219): 0; Ratio (Area/IS Area) DA (plasma at a low concentration level, plasma containing 50 μg/mL of the component, control plasma 0.233): 0; Ratio (Area/IS Area) E (plasma at a low concentration level, plasma containing 200 μg/mL of the component, control plasma 0.079): 0; Ratio (Area/IS Area) NE (plasma at a low concentration level, plasma containing 200 μg/mL of the component, control plasma 0.219): 0; Ratio (Area/IS Area) DA (plasma at a low concentration level, plasma containing 200 μg/mL of the component, control plasma 0.233): 0; stabilizing effect on catecholamines in plasma (single components as stabilizers): no obvious stabilizing effect |
| CC(=O)O [acetic acid] | 0 | 0 | 0 | 0 | 0 | 0 | 0 | 0 | 0 | 0 | 0 | 0 | – |
